The source of these data is publication PMC5937080, “Design, Synthesis and Biological Evaluation of Novel Peptide-Like Analogues as Selective COX-2 Inhibitors” (Iranian Journal of Pharmaceutical Research : IJPR, 2018).

The target in one experiment is T1, COX-2 (Ovis aries, UniProt P79208).
T1 construct: purchased Cayman chemical, MI, USA
T1 sequence (P79208 17-603): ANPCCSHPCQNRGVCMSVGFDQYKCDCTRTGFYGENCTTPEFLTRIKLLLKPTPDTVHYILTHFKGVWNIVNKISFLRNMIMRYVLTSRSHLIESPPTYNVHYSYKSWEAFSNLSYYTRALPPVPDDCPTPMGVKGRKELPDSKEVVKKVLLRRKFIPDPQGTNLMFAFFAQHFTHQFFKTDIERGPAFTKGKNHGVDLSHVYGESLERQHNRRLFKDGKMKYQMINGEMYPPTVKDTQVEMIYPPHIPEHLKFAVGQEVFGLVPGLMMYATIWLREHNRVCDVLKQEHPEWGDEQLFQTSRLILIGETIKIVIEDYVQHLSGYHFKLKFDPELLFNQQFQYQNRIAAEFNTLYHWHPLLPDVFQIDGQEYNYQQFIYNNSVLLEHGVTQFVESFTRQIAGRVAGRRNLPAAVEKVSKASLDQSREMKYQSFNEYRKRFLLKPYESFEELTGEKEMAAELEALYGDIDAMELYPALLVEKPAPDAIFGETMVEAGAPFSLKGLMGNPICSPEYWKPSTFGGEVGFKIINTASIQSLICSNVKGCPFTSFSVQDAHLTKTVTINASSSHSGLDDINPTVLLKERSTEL
Briefly: biochemical. The note with it: for IC50: ovine COX-1/COX-2 assay kit, mean of two determinations, deviation < 10% of the mean. As for the experimental part: (§1) In-vitro cyclooxygenase (COX) inhibition assays
(§2) The assay was performed using an enzyme chemiluminescent kit (Cayman chemical, MI, USA) according to the previously reported method ([17]).

The target in another experiment is T2, COX-1 (Ovis aries, UniProt P05979).
T2 construct: purchased Cayman chemical, MI, USA
T2 sequence (P05979 25-600): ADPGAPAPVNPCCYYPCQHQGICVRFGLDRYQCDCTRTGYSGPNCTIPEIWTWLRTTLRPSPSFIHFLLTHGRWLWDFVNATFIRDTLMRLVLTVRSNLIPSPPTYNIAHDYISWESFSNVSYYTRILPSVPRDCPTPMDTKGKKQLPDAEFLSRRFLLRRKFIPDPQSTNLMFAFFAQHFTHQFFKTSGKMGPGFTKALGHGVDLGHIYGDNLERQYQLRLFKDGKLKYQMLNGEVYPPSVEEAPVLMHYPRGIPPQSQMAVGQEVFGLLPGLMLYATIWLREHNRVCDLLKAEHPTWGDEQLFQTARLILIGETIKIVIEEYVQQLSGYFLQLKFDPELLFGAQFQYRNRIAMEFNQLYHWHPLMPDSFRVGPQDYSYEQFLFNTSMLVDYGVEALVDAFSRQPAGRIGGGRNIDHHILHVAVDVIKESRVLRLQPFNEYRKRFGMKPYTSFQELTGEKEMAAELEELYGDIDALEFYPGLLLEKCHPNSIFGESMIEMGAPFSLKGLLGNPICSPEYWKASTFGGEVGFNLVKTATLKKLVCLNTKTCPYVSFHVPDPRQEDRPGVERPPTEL
Briefly: biochemical. Particulars: ovine COX-1/COX-2 assay kit; mean of two determinations, deviation < 10% of the mean. As for the experimental part: as §1, §2

SMILES strings stand for the structures.

Regarding `CS(=O)(=O)c1ccc(C(=O)NC(Cc2cnc[nH]2)C(=O)O)cc1` (stereo not drawn) [Compound 2c, p-MeSO2Bz -His], the IC50 against COX-2 and against COX-1 was more than 100 µM throughout.

`[N-]=[N+]=Nc1ccc(C(=O)NC(Cc2ccc(O)cc2)C(=O)O)cc1` (centres unmarked) [Compound 3d, p-N3Bz -Tyr]: the “S.I. In-vitro COX-2 selectivity index (COX-1 IC50/COX-2 IC50)” value on COX-2 came to 2.1. For the same molecule, the IC50 on COX-2 was 10.1 µM; at COX-1, 20.9 µM.

On to `[N-]=[N+]=Nc1ccc(C(=O)NC(Cc2c[nH]c3ccccc23)C(=O)O)cc1` (centres unmarked) [Compound 4d, p-N3Bz -Trp], for which the IC50 against COX-2 and against COX-1 was more than 100 µM in each case.

`CS(=O)(=O)c1ccc(C(=O)NC(Cc2ccccc2)C(=O)O)cc1` (centres unmarked) [Compound 1c, p-(methylsulfonyl)benzoyl-phenylalanine]: the IC50 against COX-2 and on COX-1 was more than 100 µM each time.

As for `[N-]=[N+]=Nc1ccc(C(=O)NC(Cc2c[nH]cn2)C(=O)O)cc1` (centres unmarked) [Compound 2d, p-N3Bz -His], at COX-2, the “S.I. In-vitro COX-2 selectivity index (COX-1 IC50/COX-2 IC50)” value is given as 351.2 and the IC50 was 0.08 µM. Moreover, at COX-1, the midpoint of inhibition, the IC50, lay at 28.1 µM.

For `CS(=O)(=O)c1ccc(C(=O)NC(Cc2ccc(O)cc2)C(=O)O)cc1` (stereo not drawn) [Compound 3c, p-MeSO 2 Bz -Tyr], at COX-2, the “S.I. In-vitro COX-2 selectivity index (COX-1 IC50/COX-2 IC50)” value amounted to 109.6 and the IC50 worked out at 0.23 µM. Inhibition on COX-1 was half-maximal at 25.2 µM (IC50).

On to `[N-]=[N+]=Nc1ccc(C(=O)NC(Cc2ccccc2)C(=O)O)cc1` (centres unmarked) [Compound 1d, p-azidobenzoyl-phenylalanine], for which the half-maximal inhibitory concentration (IC50) against COX-2 is more than 100 µM; against COX-1, 55.5 µM.

Consider `CS(=O)(=O)c1ccc(C(=O)NC(Cc2c[nH]c3ccccc23)C(=O)O)cc1` (stereo not drawn) [Compound 4c, p-MeSO2Bz -Trp], for which, at COX-2, the “S.I. In-vitro COX-2 selectivity index (COX-1 IC50/COX-2 IC50)” value is 184.4 and inhibition was half-maximal at 0.09 µM (IC50). For the same molecule, the midpoint of inhibition against COX-1, the IC50, lay at 16.6 µM.
